Test results taken from PMC3199943, “Screening the MayBridge Rule of 3 Fragment Library for Compounds That Interact with the Trypanosoma brucei myo-Inositol-3-Phosphate Synthase and/or Show Trypanocidal Activity” (Molecular Biology International, 2011).
Read-outs that look alike come from different tables or passages of the source.

Columns and labels:
HeLa cells = test: cells; conditions: for HeLa Cells Alamar Blue: Supplementary Table 1; for viability at 500 µM / CC50: Homo sapiens, HeLa; for viability at 500 µM: 65 h; for CC50: read-out: HeLa ED50
In short: (§1)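 Alamar Blue read-out after a 5 h dye incubation that followed ~65 h compound exposure. Cells: HeLa or A549, 2 × 10^4/well, DMEM + 10% FCS + 2 mM L-Glutamine.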

A549 cells = test: Cytotoxicity against A549 cells, Alamar Blue; assay type: cell-based; conditions: Supplementary Table 1, compound 0.5 mM, percentage of controls (n=1); for viability at 500 µM: Homo sapiens, A549, 65 h
In short: as §1

TbINO1 = target: T1, TbINO1 (Trypanosoma brucei brucei, UniProt Q5QQ46); test: biochemical; assay type: binding
T1 sequence (Q5QQ46 1-528): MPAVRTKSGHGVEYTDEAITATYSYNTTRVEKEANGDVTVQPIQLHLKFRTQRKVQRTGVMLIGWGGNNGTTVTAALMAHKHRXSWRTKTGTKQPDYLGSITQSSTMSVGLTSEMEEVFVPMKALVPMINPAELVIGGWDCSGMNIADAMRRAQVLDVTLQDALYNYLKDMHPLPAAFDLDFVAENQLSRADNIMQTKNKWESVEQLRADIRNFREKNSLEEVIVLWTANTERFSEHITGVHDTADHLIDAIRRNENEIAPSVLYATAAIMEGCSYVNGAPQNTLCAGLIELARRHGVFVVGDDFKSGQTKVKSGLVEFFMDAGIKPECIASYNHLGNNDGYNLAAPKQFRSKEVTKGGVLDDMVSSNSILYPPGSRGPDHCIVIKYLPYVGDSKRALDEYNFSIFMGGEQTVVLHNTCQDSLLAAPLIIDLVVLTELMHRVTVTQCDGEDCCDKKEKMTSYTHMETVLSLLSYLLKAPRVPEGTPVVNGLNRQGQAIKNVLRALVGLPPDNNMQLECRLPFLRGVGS

[1] = compound 0.5 mM, percentage of controls, mean ± SD (n=3) or SE (n=2)
[2] = Supplementary Table 1, compound 1mM, mean ± SD from Boltzman curve fitting
[3] = read-out: HeLa Cells Alamar Blue
[4] = read-out: Tb Ino1 Tm Shift [˚C]
[5] = read-out: HeLa Cells Alamar Blue (% survival)

| Structure (SMILES) | viability at 500 µM (HeLa cells; [3]) | viability at 500 µM (A549 cells) | ΔTm at 1000 µM (TbINO1; [4]) | further results |
| --- | --- | --- | --- | --- |
| COc1c(C(=O)O)csc1Cl [compound 575, 5‐chloro‐4‐methoxythiophene‐3‐carboxylic acid] |  |  |  | HeLa Cells Alamar Blue (HeLa cells; [1]): 90.5 ± 15.4 percentage of controls; A549 Cells Alamar Blue (A549 cells): 91.2 percentage of controls; Tb Ino1 Tm Shift [˚C] (TbINO1; [2]): 1.07 ± 0.08 °C |
| Cc1noc(C)c1C#N [compound 53, 3,5‐dimethyl‐4‐isoxazolecarbonitrile] | 89.3 ± 2.8% | 84.5% | 0.52 ± 0.09 °C |  |
| NCc1ccc(-c2ccco2)cc1 [compound 373, [4‐(2‐furyl)phenyl]methylamine] | 82.5 ± 14.3% | 63.4% | 0.48 ± 0.05 °C |  |
| COC(=O)c1cc(C)[nH]c1C [compound 214, methyl 2,5‐dimethyl‐1H‐pyrrole‐3‐carboxylate] |  |  |  | HeLa Cells Alamar Blue (HeLa cells; [1]): 74.8 ± 18 percentage of controls; A549 Cells Alamar Blue (A549 cells): 64.4 percentage of controls; Tb Ino1 Tm Shift [˚C] (TbINO1; [2]): 0.78 ± 0.06 °C |
| O=C(O)C1NCCS1 (stereo not drawn) [compound 103, 1,3-thiazolane-2-carboxylic acid] | 103 ± 6.4% | 107% |  | viability at 500 µM (HeLa cells; [5]): 103 ± 6.4%; ΔTm at 1000 µM (TbINO1; read-out: TbIno1 Tm shift [°C]): 2.63 ± 0.08 °C |
| OCc1ccc(-c2ccco2)cc1 [compound 383, [4-(2-furyl)phenyl]methanol] | 20 ± 10.6% | 89.6% |  | viability at 500 µM (HeLa cells; [5]): 20 ± 10.6%; CC50 (HeLa cells): 292 ± 31 µM; ΔTm at 1000 µM (TbINO1; read-out: TbIno1 Tm shift [°C]): 3.45 ± 0.09 °C |
| CC(=O)c1ccc(F)c(F)c1 [compound 234, 1‐(3,4‐difluorophenyl)ethan‐1‐one] | 90.3 ± 14% | 73.9% | 0.14 ± 0.08 °C |  |
| CC(=O)CSc1ccc(C)cc1 [compound 460, 1‐[(4‐methylphenyl)thio]acetone] | 97 ± 2.5% | 96.9% | 0.46 ± 0.07 °C |  |
| NCc1ccccc1Cl [compound 136, 2‐chlorobenzylamine] | 53.3 ± 12.2% | 90.4% | 0.02 ± 0.07 °C |  |
| N#Cc1c(N)cccc1F [compound 115, 2‐amino‐6‐fluorobenzonitrile] | 71.3 ± 0.6% | 77.4% | 0.17 ± 0.07 °C |  |
| Nc1ccc(CO)cn1 [compound 66, (6‐amino‐3‐pyridinyl)methanol] | 80.3 ± 9.7% | 85.1% | 0.24 ± 0.09 °C |  |
| CC(=O)c1cc(Cl)sc1Cl [compound 590, 1‐(2,5‐dichloro‐3‐thienyl)ethan‐1‐one] | 97.7 ± 13.9% | 130% | 0.3 ± 0.07 °C |  |
| Cc1nc(C(N)=S)c[nH]1 [compound 135, 2-methyl-1H-imidazole-4-carbothioamide] | 90.3 ± 10.9% | 102% |  | viability at 500 µM (HeLa cells; [5]): 90.3 ± 10.9%; ΔTm at 1000 µM (TbINO1; read-out: TbIno1 Tm shift [°C]): 1.74 ± 0.09 °C |
| O=C(O)c1ccnc2ccccc12 [compound 368, quinoline‐4‐carboxylic acid] | 90.7 ± 7.5% | 90.3% | 0.33 ± 0.08 °C |  |
| NC(=S)c1ccno1 [compound 86, isoxazole‐5‐carbothioamide] | 102 ± 3.4% | 105% | 0.94 ± 0.08 °C |  |
| O=C1Cc2ccccc2N1 [compound 99, indolin-2-one] | 66.6 ± 18.7% | 229% |  | viability at 500 µM (HeLa cells; [5]): 66.6 ± 18.7%; CC50 (HeLa cells): > 2000 µM; ΔTm at 1000 µM (TbINO1; read-out: TbIno1 Tm shift [°C]): 2.04 ± 0.07 °C |
| CC(C)(N)CN1CCCC1 [compound 142, 2‐methyl‐1‐(1‐pyrrolidinyl)‐2‐propanamine] |  |  |  | HeLa Cells Alamar Blue (HeLa cells; [1]): 89.9 ± 8.9 percentage of controls; A549 Cells Alamar Blue (A549 cells): 96.3 percentage of controls; Tb Ino1 Tm Shift [˚C] (TbINO1; [2]): 0.13 ± 0.07 °C |
| N#CCOc1ccc(C(F)(F)F)cn1 [compound 634, 2‐{[5‐(trifluoromethyl)‐2‐pyridyl]oxy}acetonitrile] |  |  |  | HeLa Cells Alamar Blue (HeLa cells; [1]): 73.3 ± 1.6 percentage of controls; A549 Cells Alamar Blue (A549 cells): 87.2 percentage of controls; Tb Ino1 Tm Shift [˚C] (TbINO1; [2]): 0.24 ± 0.09 °C |
| OCc1cn2ccccc2n1 [compound 172, imidazo[1,2‐a]pyridin‐2‐ylmethanol] | 86.6 ± 15.1% | 97.5% | 0.44 ± 0.08 °C |  |
| OCCc1c[nH]c2ccccc12 [compound 277, 2‐(1H‐indol‐3‐yl)ethan‐1‐ol] | 66.3 ± 1.7% | 59.9% | 1.12 ± 0.06 °C |  |
| Cc1nc(C(C)(C)C)cs1 [compound 229, 4‐(tert‐butyl)‐2‐methyl‐1,3‐thiazole] | 108 ± 11.8% | 65.6% | 0.23 ± 0.07 °C |  |

| Structure (SMILES) | viability at 500 µM (HeLa cells; [3]) | viability at 500 µM (A549 cells) | ΔTm at 1000 µM (TbINO1; [4]) | further results |
| --- | --- | --- | --- | --- |
| Cn1ccc(N)n1 [compound 8, 1‐methyl‐1H‐pyrazol‐3‐amine] | 107 ± 7.8% | 122% | 0.09 ± 0.07 °C |  |
| O=C(O)CCc1ccccc1O [compound 323, 3‐(2‐hydroxyphenyl)propanoic acid] | 113 ± 2.8% | 110% | 1.23 ± 0.07 °C |  |
| N#Cc1ccc(F)cc1 [compound 51, 4‐fluorobenzonitrile] | 90.9 ± 7.5% | 64.2% |  | ΔTm at 1000 µM (TbINO1; Supplementary Table 1, compound 1mM, mean ± SD from Boltzman curve fitting, read-out: Tb Ino1 Tm Shift [˚C]): 0.1 ± 0.08 °C |
| COC(=O)c1ccsc1N [compound 242, methyl 2‐aminothiophene‐3‐carboxylate] | 37 ± 6.1% | 80.5% | 0.34 ± 0.08 °C |  |
| Cc1nn(C)c(C)c1N [compound 72, 1,3,5‐trimethyl‐1H‐pyrazol‐4‐amine] | 78.5 ± 0.8% | 70.9% | 1.19 ± 0.08 °C |  |
| Cc1nccc(-c2cccc(N)c2)n1 [compound 493, 3‐(2‐methylpyrimidin‐4‐yl)aniline] | 65.9 ± 17% | 92.6% | 0.15 ± 0.07 °C |  |
| OCc1cccc2c1OCC2 [compound 186, 2,3-Dihydrobenzo[b]furan-7-methanol] | 86.5 ± 14.8% | 41.8% |  | viability at 500 µM (HeLa cells; [5]): 86.5 ± 14.8%; ΔTm at 1000 µM (TbINO1; read-out: TbIno1 Tm shift [°C]): 4.09 ± 0.09 °C |
| Cc1nc(C#N)cs1 [compound 67, 2‐methyl‐1,3‐thiazole‐4‐carbonitrile] | 96.1 ± 9.2% | 89.7% | 0.01 ± 0.07 °C |  |
| N#Cc1cccc(N2CCCC2)c1 [compound 362, 3‐pyrrolidin‐1‐ylbenzonitrile] | 97.4 ± 19.9% | 63.3% | 0.05 ± 0.07 °C |  |
| OC1CCC(C(F)(F)F)CC1 (stereo not drawn) [compound 333, 4‐(trifluoromethyl)cyclohexan‐1‐ol] | 110 ± 4.4% | 114% | 0.47 ± 0.04 °C |  |
| O=C(O)CCc1c[nH]c2ccccc12 [compound 533, 3‐(1H‐indol‐3‐yl)propanoic acid] | 94.9 ± 6% | 67.2% | 0.73 ± 0.07 °C |  |
| c1ccc(Sc2ccsc2)cc1 [compound 574, 3‐(phenylthio)thiophene] | 98.8 ± 18.5% | 93.9% | 0.11 ± 0.07 °C |  |
| O=C(O)c1ccccc1-c1cccnc1 [compound 613, 2‐pyrid‐3‐ylbenzoic acid] | 80 ± 5.6% | 59.8% | 0.14 ± 0.07 °C |  |
| CC1=NNC(=O)CC1 [compound 31, 6‐methyl‐2,3,4,5‐tetrahydropyridazin‐3‐one] |  |  |  | HeLa Cells Alamar Blue (HeLa cells; [1]): 85.4 ± 6.1 percentage of controls; A549 Cells Alamar Blue (A549 cells): 68.2 percentage of controls; Tb Ino1 Tm Shift [˚C] (TbINO1; [2]): 0.22 ± 0.07 °C |
| OCc1cn2ccsc2n1 [compound 221, imidazo[2,1‐b]thiazol‐6‐ylmethanol] | 107 ± 7.6% | 99.5% | 0.09 ± 0.23 °C |  |
| Cc1ccc2cc(CO)ccc2n1 [compound 374, (2‐methyl‐6‐quinolinyl)methanol] | 53.2 ± 2.6% | 46.3% | 0.1 ± 0.06 °C |  |
| OCc1ccc(OC(F)(F)F)cc1 [compound 563, [4‐(trifluoromethoxy)phenyl]methanol] | 94.5 ± 8.3% | 92.9% | 0.01 ± 0.07 °C |  |
| CCOC(=O)c1[nH]c(C)c(CC)c1C [compound 594, ethyl 4‐ethyl‐3,5‐dimethyl‐1H‐pyrrole‐2‐carboxylate] |  |  |  | HeLa Cells Alamar Blue (HeLa cells; [1]): 79.8 ± 6.6 percentage of controls; A549 Cells Alamar Blue (A549 cells): 59.9 percentage of controls; Tb Ino1 Tm Shift [˚C] (TbINO1; [2]): 0.17 ± 0.08 °C |
| Cc1cc(N)no1 [compound 9, 5‐methylisoxazol‐3‐amine] |  | 112% | 0.13 ± 0.06 °C | viability at 500 µM (HeLa cells; read-out: HeLa Cells Alamar Blue, Supplementary Table 1, compound 0.5 mM, percentage of controls, mean ± SD (n=3) or SE (n=2)): 105 ± 6.2% |
| OCc1ccc2ccccc2n1 [compound 256, 2-quinolinylmethanol] | 99.2 ± 19.5% | 119% |  | viability at 500 µM (HeLa cells; [5]): 99.2 ± 19.5%; CC50 (HeLa cells): 836 ± 68 µM; ΔTm at 1000 µM (TbINO1; read-out: TbIno1 Tm shift [°C]): 2.2 ± 0.06 °C |
